The text below walks through data of paper PMC6323635 (Journal of natural products, 2016).

Entries after “also recorded” stand apart in the source; their conditions may differ. Where two headings read alike, the source gives them in different places.

For data set [1], the system named is tumor growth in xenograft models. Particulars: cited from earlier work.
In a further data set the test system is COLO 205 cells. In words: CCK-8 cytotoxicity assay under hypoxic conditions. The data set is classed as cell-based. Particulars: for Cell death in COLO 205 cells: up to concentrations of 10 μM, hypoxia; for IC50: read-out: IC50 value (μM) ± SEM, COLO 205 (48 h, 0.5% O2), COLO 205, 48 h, 0.5% O2, CCK-8.
Data set [2] concerns HIF-1α transcriptional activity in COLO 205 cells. In words: HIF reporter assay. The class given is cell-based, human. A general note: A reporter such as luciferase makes a cellular process visible.
The test system of another data set is DNA topoisomerase II. As to conditions: cited from earlier work.
In the next data set the target is HIF-1α/p300 (Homo sapiens, UniProt Q09472). In words: HIF-1α/p300 screening assay. The data set is classed as binding.
The test system of data set [3] is HIF-1α transcriptional activity in HCT 116 cells. In words: HIF reporter assay. The data set is classed as cell-based.
In data set [4] the test system is VEGF secretion in HCT 116 cells. In words: VEGF ELISA. The data set is classed as cell-based, human. Particulars: for Hypoxia-induced VEGF secretion in HCT 116 cells: 48 h, 0.5% O2, concentrations active in HIF reporter assay. On the technique in general: An ELISA detects its analyte on a solid surface through an enzyme-linked reagent.
The test system of data set [5] is HCT 116 cells. Particulars: cited from earlier work.
The subject of data set [6] is VEGF secretion in LNCaP cells. In words: VEGF ELISA. The data set is classed as cell-based, human. As to conditions: 18 h, 1% O2.
Data set [7] relates to ENO1, VEGF, and LDHA mRNA expression in PC3 prostate cancer cells. Particulars: cited from earlier work.
Data set [8] has as its system HCT 116 cells. Particulars: cited from earlier work. The source holds these as a separate data set.
Data set [9] has as its system HCT 116 cells. In words: CCK-8 cytotoxicity assay under hypoxic conditions. The class given is cell-based, human. Particulars: 0.5% O2, CCK-8.
Another data set has as its system LNCaP cells. In words: CCK-8 cytotoxicity assay under hypoxic conditions. Particulars: read-out: IC50 value (μM) ± SEM, LNCaP (18 h, 1% O2), 1% O2, CCK-8. The class given is cell-based, human.
The test system of data set [10] is HIF-1α transcriptional activity in LNCaP cells. In words: HIF reporter assay. The data set is classed as cell-based, human.
The mark [11] stands for this setting: read-out: IC50 value (μM) ± SD, HIF-1α/p300 screening assay, cell-free assay, ± SD.
Setting [12] is: read-out: IC50 value (μM) ± SEM, HCT 116 (18 h, 0.5% O2), HCT 116, 18 h.

Chain of HIF-1α/p300 (Q09472 331-417 limits assumed): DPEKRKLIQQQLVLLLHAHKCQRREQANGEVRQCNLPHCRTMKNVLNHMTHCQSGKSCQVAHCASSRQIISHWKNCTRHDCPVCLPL

As for `O=C1CC2SC3CC2(C=C1Br)C1=C(N3)C(=O)c2[nH]cc3c2C1=NCC3` (single isomer, unassigned; (+)) [compound 6, (+)-discorhabdin A], the “Tumor growth in xenograft models” value in [1] is listed as “did not reduce tumor growth”.
`O=C1C(NC2Cc3cc(Br)c(O)cc3S2)=CC2=NCCc3c[nH]c1c32` (single isomer, unassigned; (-)) [compound 5, (−)-makaluvamine F]: the “Cell death in COLO 205 cells” value in the data set with COLO 205 cells is given as “did not cause substantial cell death”. Also, in data set [2] (p < 0.05, 18 h, 0.5% O2), the “Concentrations causing significant inhibition of luciferase activity, COLO 205” value is listed as “no effect”. Further, the “Inhibition of DNA topoisomerase II” value in the data set with DNA topoisomerase II was “inhibit DNA topoisomerase II”.
Regarding `CN1C(=O)[C@]2(Cc3cn([C@]45C[C@@]67SS[C@@](CO)(C(=O)N6[C@H]4Nc4ccccc45)N(C)C7=O)c4ccccc34)SS[C@@]1(CO)C(=O)N2C` [chetomin, reference compound], the IC50 against HIF-1α/p300 is 1.9 ± 0.5 µM.
`O=C1C=C2S[C@H]3C[C@]2(C=C1Br)C1=C(N3)C(=O)c2[nH]cc3c2C1=NCC3` [compound 1, (+)-discorhabdin B]: the “Concentrations causing significant inhibition of luciferase activity, COLO 205” value in data set [2] (p < 0.05, 18 h, 0.5% O2) is “no effect”. In data set [1], the “Tumor growth in xenograft models” value was “did not reduce tumor growth”.
In the case of `O=C1C=C(S[C@H]2[C@H]3C(=O)C=C4S[C@H]5C[C@]42C2=C(N5)C(=O)c4[nH]cc5c4C2=[N+]3CC5)[C@]2(C=C1Br)CCNC1=C2C2=NCCc3c[nH]c(c32)C1=O` [compound 2, (−)-discorhabdin B dimer], in the data set with COLO 205 cells, the “Cell death in COLO 205 cells” value was “did not cause substantial cell death”. Moreover, the “Effect on HIF-1α transcriptional (reporter) activity in HCT 116 cells” value in data set [3] (in words, 18 h, 0.5% O2) is given as “most potent at decreasing reporter activity”. In addition, in data set [2] (p < 0.05, 18 h, 0.5% O2), the “Concentrations causing significant inhibition of luciferase activity, COLO 205” value is “no effect”. Besides, the “Trend in VEGF secretion in HCT 116 cells” value in data set [4] (0.1–0.25 μM, 18 h and 48 h) is recorded as “statistically nonsignificant trend in the decrease”. Moreover, the “Hypoxia-induced VEGF secretion in HCT 116 cells” value (from here on “Hypoxia-induced VEGF secretion”) in [4] was “none of these compounds significantly reduced”.
For the compound `O=C1C2=C(C3=NCCc4c[nH]c1c43)[C@]1(C=C(Br)[C@H](O)C(Br)=C1)CCN2` [compound 3, 3-dihydrodiscorhabdin C], in data set [2] (p < 0.05, 18 h, 0.5% O2), the “Concentrations causing significant inhibition of luciferase activity, COLO 205” value is recorded as “no effect”. Besides, in the data set with HCT 116 cells [5], the “IC50 values, cytotoxicity in HCT 116 cells” value was “lower micromolar range”.
In the case of `O=C1C2=C3C4=[N+](CCc5c[nH]c1c54)[C@H]1C[C@@]34C[C@@H](N2)SC4=CC1=O` [compound 7, (−)-discorhabdin D], the “Antitumor activity in vivo” value in data set [1] is given as “the only reported discorhabdin with such activity”.
Consider `O=C1C2=C3C4=[N+](CCc5c[nH]c1c54)[C@@H]1C(=O)C=C4S[C@@H](C[C@@]43[C@H]1O)N2` [compound 9, (−)-discorhabdin L], for which the “Concentrations causing significant inhibition of luciferase activity, COLO 205” value in data set [2] (p < 0.05, 18 h, 0.5% O2) is recorded as “no effect”. Moreover, in data set [6] (0.25–1 μM), the “VEGF concentrations in LNCaP cells” value is given as “borderline significant decrease”. Further, in data set [4], the “Hypoxia-induced VEGF secretion” value is recorded as “none of these compounds significantly reduced”.
Take `CN1C(=O)[C@]23CC4=CC=C[C@H](O)[C@H]4N2C(=O)[C@@]1(CO)SS3` [gliotoxin]: the “ENO1, VEGF, and LDHA mRNA expression in PC3 prostate cancer cells” value in [7] is listed as “lowered”. In addition, in the data set with HCT 116 cells [8], the “Effects on HIF target mRNA expression in HCT 116 cells” value was “no effects”.
Turning to (+)-discorhabdin G*/I [compound 4], the “IC50 values, cytotoxicity in HCT 116 cells” value with HCT 116 cells [5] is recorded as “lower micromolar range”.
For the compound (−)-discorhabdin H [compound 8], the IC50 at HIF-1α/p300 (setting [11]) is 2.2 ± 0.6 µM; in the data set with HCT 116 cells [9] (setting [12]), above 10 µM; in the data set on HCT 116 cells [9] (read-out: IC50 value (μM) ± SEM, HCT 116 (48 h, 0.5% O2), HCT 116, 48 h) it was above 50 µM; with LNCaP cells, above 10 µM; in the data set on COLO 205 cells, above 10 µM. Further, in the data set on COLO 205 cells, the “Cell death in COLO 205 cells” value is listed as “did not cause substantial cell death”. The “Concentrations causing significant inhibition of luciferase activity, LNCaP” value in data set [10] (p < 0.05, 18 h, 1% O2, superscript a = >50% cell death in CCK-8 assay) stood at 0.1 µM. Besides, the “Concentrations causing significant inhibition of luciferase activity, COLO 205” value in data set [2] (p < 0.05, 18 h, 0.5% O2) is recorded as “no effect”. In addition, the “VEGF secretion in LNCaP cells” value in [6] (0.5 μM) is reported as “significant decrease; also recorded: significantly decreased”. In addition, the “Hypoxia-induced VEGF secretion” value in data set [4] is given as “none of these compounds significantly reduced”.
Take (−)-discorhabdin W [compound 11]: the “Activity in the screening assay” value on HIF-1α/p300 (in words) is listed as “no activity”. Moreover, the IC50 was above 100 µM at HIF-1α/p300 (setting [11]), above 10 µM in the data set with HCT 116 cells [9] (setting [12]), above 10 µM with LNCaP cells and above 10 µM in the data set with COLO 205 cells. In the data set on COLO 205 cells, the “Cell death in COLO 205 cells” value is listed as “did not cause substantial cell death”. In addition, in data set [3], the “Effect on HIF-1α transcriptional (reporter) activity in HCT 116 cells” value was “reduced HIF reporter activity”. Moreover, the “Activity in HIF reporter assay in LNCaP cells” value in data set [10] is “did not show activity”. In data set [10], the “Concentrations causing significant inhibition of luciferase activity, LNCaP” value is listed as “no effect”. The “Concentrations causing significant inhibition of luciferase activity, COLO 205” value in data set [2] was “no effect”.
